This note sets out measurements from patent US8796259B2, “N3-heteroaryl substituted triazoles and N5-heteroaryl substituted triazoles useful as axl inhibitors” (Rigel Pharmaceuticals, Inc., priority 2006, dated 2014).

In this assay the target is T1, Axl (Homo sapiens, UniProt P30530).
T1 construct: endogenous in cells; host or cells: HeLa cells
T1 sequence (P30530 26-894): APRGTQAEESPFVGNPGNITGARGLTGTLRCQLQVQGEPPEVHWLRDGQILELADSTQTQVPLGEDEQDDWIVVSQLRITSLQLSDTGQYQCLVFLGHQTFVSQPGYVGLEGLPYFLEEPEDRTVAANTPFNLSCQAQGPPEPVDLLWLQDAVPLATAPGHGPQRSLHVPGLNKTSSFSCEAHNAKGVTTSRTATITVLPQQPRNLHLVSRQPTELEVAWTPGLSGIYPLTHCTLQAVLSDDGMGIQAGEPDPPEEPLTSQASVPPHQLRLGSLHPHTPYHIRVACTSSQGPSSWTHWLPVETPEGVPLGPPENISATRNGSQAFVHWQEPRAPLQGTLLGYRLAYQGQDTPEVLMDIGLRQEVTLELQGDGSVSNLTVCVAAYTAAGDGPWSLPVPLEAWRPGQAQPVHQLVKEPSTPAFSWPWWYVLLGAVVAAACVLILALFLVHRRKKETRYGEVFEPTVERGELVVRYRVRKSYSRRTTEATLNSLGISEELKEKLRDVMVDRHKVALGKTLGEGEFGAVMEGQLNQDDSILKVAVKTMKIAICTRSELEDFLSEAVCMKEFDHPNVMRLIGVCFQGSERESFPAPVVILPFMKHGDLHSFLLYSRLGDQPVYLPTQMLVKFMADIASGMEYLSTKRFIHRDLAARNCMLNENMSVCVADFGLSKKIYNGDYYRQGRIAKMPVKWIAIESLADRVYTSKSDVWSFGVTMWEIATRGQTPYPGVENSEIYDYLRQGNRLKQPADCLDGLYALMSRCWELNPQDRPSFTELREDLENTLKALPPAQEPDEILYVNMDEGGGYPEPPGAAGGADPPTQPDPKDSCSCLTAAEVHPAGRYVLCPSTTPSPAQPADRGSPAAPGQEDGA
The assay is described as follows: Phospho-Akt in-cell Western assay (inhibition of Axl activity, Axl-antibody cross-linking stimulation). Type of assay: cell-based. The note with it: Hela cells, phospho-Akt readout; compounds of formula (Ia), Table 1. Summed up: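 HeLa cells on poly-L-lysine were starved 24 h in 0.5% FCS/DMEM with 500 ng/mL Axl/Fc, pre-treated with compound 1 h at 37 °C, then stimulated 5 min by cross-linked mouse anti-Axl/biotin anti-mouse antibody clusters. After formaldehyde fixation, phospho-Akt was detected by rabbit anti-phospho-Akt and HRP secondary with chemiluminescence read-out.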

For `CCN(CC)CC1CCCN1c1ccc(Nc2nc(N)n(-c3nc(Cl)nc4c(C)csc34)n2)cn1` (stereo not shown) [compound 38, 1-(2-chloro-7-methylthieno [3,2-d]pyrimidin-4-yl)-N^3-(6-(2-diethylamino-methyl-pyrrolidin-1-yl)pyridin-3-yl)-1H-1,2,4-triazole-3,5-diamine], the IC50 is < 1000 nM. In the case of `COc1cc2ncnc(-n3nc(Nc4ccc(N5CCN(CC6CC6)[C@@H](C)C5)nc4)nc3N)c2cc1OC` [compound 114, 1-(6,7-dimethoxy-quinazoline-4-yl)-N^3-(2-(4-cyclo-propylmethyl-3-(S)-methyl-piperazin-1-yl)pyridin-5-yl)-1H-1,2,4-triazole-3,5-diamine] it was < 1000 nM; in that of `COc1cc2ncnc(-n3nc(Nc4ccc(N5CCC(N6CCCC6)CC5)nc4)nc3N)c2cc1OC` [compound 23, 1-(6,7-dimethoxy-quinazoline-4-yl)-N^3-(6-(4-pyrrolidin-1-ylpiperidin-1-yl)pyridine-3-yl)-1H-1,2,4-triazole-3,5-diamine], < 1000 nM.

Compound `Nc1nc(Nc2ccc3oc(CN4CCCC4)nc3c2)nn1-c1nccc2ccccc12` [compound 1, 1-(isoquinolin-1-yl)-N^3-(2-(pyrrolidin-1-ylmethyl)benzo [d]oxazol-5-yl)-1H-1,2,4-triazole-3,5-diamine] returned an IC50 of 1000 to 10000 nM.

For the compound `Cc1csc2c(-n3nc(Nc4cnc(N5CCC(N6CCCC6)CC5)nc4)nc3N)nc(Cl)nc12` [compound 91, 1-(2-chloro-7-methylthieno [3,2-d]pyrimidin-4-yl)-N^3-(2-(4-pyrrolidin-1ylpiperidin-1-yl)pyrimidin-5-yl)-1H-1,2,4-triazole-3,5-diamine], the IC50 is < 1000 nM. Next, `Cc1csc2c(-n3nc(Nc4ccc(N5CCC(N6CCCCCC6)CC5)nc4)nc3N)nc(Cl)nc12` [compound 35, 1-(2-chloro-7-methylthieno [3,2-d]pyrimidin-4-yl)-N^3-(6-(4-(azepan-1-yl)piperidin-1-yl)pyridin-3-yl)-1H-1,2,4-triazole-3,5-diamine]: < 1000 nM. Next, `Nc1nc(Nc2ccc3c(c2)OCCO3)nn1-c1nccc2ccccc12` [compound 4, N^3-(2,3-dihydrobenzo [b][1,4]dioxin-6-yl)-1-(isoquinolin-1-yl)-1H-1,2,4-triazole-3,5-diamine]: 1000 to 10000 nM. With `Cc1csc2c(-n3nc(Nc4ccc(N5CCC(N6CCN(C)CC6)CC5)nc4)nc3N)nc(Cl)nc12` [compound 22], the IC50 was < 1000 nM. Take `Cc1cc(Nc2nc(N)n(-c3ncnc4c(C)csc34)n2)cnc1N1CCN([C@H]2C[C@@H]3CC[C@H]2C3)[C@@H](C)C1` [compound 106, 1-(7-methylthieno [3,2-d]pyrimidin-4-yl)-N^3-(2-(3-(S)-methyl-4-(1S,2S,4R)-bicyclo[2.2.1]heptan-2-ylpiperazin-1-yl)-3-methylpyridin-5-yl)-1H-1,2,4-triazole-3,5-diamine]: the IC50 was < 1000 nM. Next, `Cc1csc2c(-n3nc(Nc4cnc5c(c4)CCN(C4CCCC4)CC5)nc3N)nc(Cl)nc12` [compound 12, 1-(2-chloro-7-methylthieno [3,2-d]pyrimidine-4-yl)-N^3-(7-cyclopentyl-6,7,8,9-tetrahydro-5H-pyrido [3,2-d]azepin-3-yl)-1H-1,2,4-triazole-3,5-diamine]: 1000 to 10000 nM; `Cc1csc2c(-n3nc(Nc4cnc5c(c4)CCC(N4CCCC4)CC5)nc3N)nc(Cl)nc12` (stereo not shown) [compound 77, 1-(2-chloro-7-methylthieno [3,2-d]pyrimidine-4-yl)-N^3-(7-(pyrrolidin-1-yl)-6,7,8,9-tetrahydro-5H-cyclohepta[b]pyridin-3-yl)-1H-1,2,4-triazole-3,5-diamine]: < 1000 nM.

Take `Cc1csc2c(-n3nc(Nc4cnc5c(c4)CC(N4CCCC4)CC5)nc3N)nc(Cl)nc12` (stereo not shown) [compound 82, 1-(2-chloro-7-methylthieno [3,2-d]pyrimidin-4-yl)-N^3-(6-pyrrolidin-1-yl-5,6,7,8-tetrahydro-quinolin-3-yl)-1H-1,2,4-triazole-3,5-diamine]: the IC50 is < 1000 nM.

The compound `Cc1csc2c(-n3nc(Nc4ccc(N5CCN(CC6CC6)[C@@H](C)C5)nc4)nc3N)nc(Cl)nc12` [compound 115, 1-(2-chloro-7-methyithieno [3,2-d]pyrimidin-4-yl)-N^3-(2-(4-cyclopropyl-methyl-3-(S)-methyl-piperazin-1-yl)pyridin-5-yl)-1H-1,2,4-triazole-3,5-diamine] yielded an IC50 of 1000 to 10000 nM. Next, `Nc1nc(Nc2ccc(N3CCN(CC4CC4)CC3)nc2)nn1-c1ccc(C(F)(F)F)cn1` [compound 49, 1-(5-trifluoro-methylpyridin-2-yl)-N^3-(6-(4-cyclopropyl-methyl-piperazin-1-yl)pyridin-3-yl)-1H-1,2,4-triazole-3,5-diamine]: < 1000 nM; `Cc1cc(Nc2nc(N)n(-c3cc(-c4ccccc4)ncn3)n2)cnc1N1CCC(N2CCCC2)CC1` [compound 130, 1-(6-phenyl-pyrimidine-4-yl)-N^3-(3-methyl-2-(4-pyrrolidin-1-ylpiperidin-1-yl)pyridin-5-yl)-1H-1,2,4-triazole-3,5-diamine]: < 1000 nM; `COc1cc2ncnc(-n3nc(Nc4ccc(N5CCC(N6CCCCC6)CC5)nc4)nc3N)c2cc1OC` [compound 27, 1-(6,7-dimethoxy-quinazoline-4-yl)-N^3-(6-(4-piperidin-1-ylpiperidin-1-yl)pyridine-3-yl)-1H-1,2,4-triazole-3,5-diamine]: < 1000 nM.

For `COc1cc2ncnc(-n3nc(Nc4ccc(N5CCCN(C6CCCC6)CC5)nc4)nc3N)c2cc1OC` [compound 11, 1-(6,7-dimethoxy-quinazoline-4-yl)-N^3-(6-(4-cyclopentyl-1,4-diazepan-1-yl)pyridin-3-yl)-1H-1,2,4-triazole-3,5-diamine], the IC50 was < 1000 nM.

With `Cc1cc(Nc2nc(N)n(-c3ncnc4c(C)csc34)n2)cnc1N1CCN(CC2CC2)CC1` [compound 94, 1-(7-methylthieno [3,2-d]pyrimidine-4-yl)-N^3-(6-(4-(cyclopropyl-methyl)piperazin-1-yl)-5-methyl-pyridine-3-yl)-1H-1,2,4-triazole-3,5-diamine], the IC50 is < 1000 nM. Next, `Cc1csc2c(-n3nc(Nc4ccc(C=CCN5CCN(C)CC5)nc4)nc3N)ncnc12` [compound 123, 1-(7-methylthieno [3,2-d]pyrimidin-4-yl)-N^3-(2-(3-(4-methyl-piperazin-1-yl)propen-1-yl)pyridin-5-yl)-1H-1,2,4-triazole-3,5-diamine]: < 1000 nM. In the case of `COc1cc2ncnc(-n3nc(Nc4ccc(N5CCC(N6CCN(C)CC6)CC5)nc4)nc3N)c2cc1OC` [compound 8, 1-(6,7-dimethoxy-quinazoline-4-yl)-N^3-(6-(4-(4-methyl-piperazin-1-yl)piperidin-1-yl)pyridin-3-yl)-1H-1,2,4-triazole-3,5-diamine], the IC50 is < 1000 nM. Next, `Cc1csc2c(-n3nc(Nc4ccc(N5CCN(C6CC6)CC5)nc4)nc3N)nc(Cl)nc12` [compound 68, 1-(2-chloro-7-methylthieno [3,2-d]pyrimidin-4-yl)-N^3-(6-(4-cyclopropyl-piperazin-1-yl)pyridin-3-yl)-1H-1,2,4-triazole-3,5-diamine]: < 1000 nM; `Cc1csc2c(-n3nc(Nc4ccc(C=CCN5CCC(N6CCCCC6)CC5)nc4)nc3N)ncnc12` [compound 129, 1-(7-methylthieno [3,2-d]pyrimidin-4-yl)-N^3-(2-(3-(4-piperidin-1-ylpiperidin-1-yl)propen-1-yl)pyridin-5-yl)-1H-1,2,4-triazole-3,5-diamine]: < 1000 nM. In the case of `COc1cc2ncnc(-n3nc(Nc4ccc(C=CCN5CCC(N6CCN(C)CC6)CC5)nc4)nc3N)c2cc1OC` [compound 65, 1-(6,7-dimethoxy-quinazoline-4-yl)-N^3-(6-(3-(4-(4-methyl-piperazin-1-yl)piperidin-1-yl)propenyl)pyridin-3-yl)-1H-1,2,4-triazole-3,5-diamine], the IC50 was < 1000 nM. Next, `COc1cc2ncnc(-n3nc(Nc4ccc(C=CCN5CCN(C(C)C)CC5)nc4)nc3N)c2cc1OC` [compound 113, 1-(6,7-dimethoxy-quinazoline-4-yl)-N^3-(2-(3-(4-isopropyl-piperazin-1-yl)propen-1-yl)pyridine-5-yl)-1H-1,2,4-triazole-3,5-diamine]: < 1000 nM. Next, `Cc1csc2c(-n3nc(Nc4ccc(C=CCN5CCN(C(C)C)CC5)nc4)nc3N)ncnc12` [compound 124, 1-(7-methylthieno [3,2-d]pyrimidin-4-yl)-N^3-(2-(3-(4-isopropyl-piperazin-1-yl)propen-1-yl)pyridin-5-yl)-1H-1,2,4-triazole-3,5-diamine]: < 1000 nM.

Usually IC50 stands for the concentration that inhibits the measured activity by half. Low values mean greater potency in that assay, high ones weaker potency in that assay.
